Test results published in US20240382529A1, “COMPOSITIONS AND METHODS FOR TREATING SPINAL CORD INJURIES” (ASTERIAS BIOTHERAPEUTICS, INC., priority 2022, published 2024).

B1: Decorin: extracellular small leucine-rich proteoglycan, TGF-β1/2 antagonist; recombinant form used in rat SCI models (protein, UniProt P07585 31-359, looked up)
Decorin: DEASGIGPEVPDDRDFEPSLGPVCPFRCQCHLRVVQCSDLGLDKVPKDLPPDTTLLDLQNNKITEIKDGDFKNLKNLHALILVNNKISKVSPGAFTPLVKLERLYLSKNQLKELPEKMPKTLQELRAHENEITKVRKVTFNGLNQMIVIELGTNPLKSSGIENGAFQGMKKLSYIRIADTNITSIPQGLPPSLTELHLDGNKISRVDAASLKGLNNLAKLGLSFNSISAVDNGSLANTPHLRELHLDNNKLTRVPGGLAEHKYIQVVYLHNNNISVVGSSDFCPPGHNTKKASYSGVSLFSNPVQYWEIQPSTFRCVYVRSAIQLGNYK

Tests used:
[1] = tested on: subacute cervical spinal cord injuries (SCI); assay: Phase 1/2a cervical SCI trial: safety, adverse events; assay type: in vivo, human
Procedure: Study Design. The trial design was an open-label, staggered dose escalation, cross-sequential, multicenter study. Three sequential, escalating doses of AST-OPC1 were administered at a single time point between 21 and 42 days post-injury to subjects with subacute cervical spinal cord injuries (SCI). Subjects received AST-OPC1 via direct intra-spinal injection using a Syringe Positioning Device (SPD). To prevent rejection of engraftment, low dose tacrolimus was initiated 6 to 12 hours after and intra-spinal injection, and continued for 46 days, tapered from Day 46 to Day 60, and was discontinued at Day 60. Subjects were followed for 1 year following administration of AST-OPC1 under this protocol. Male or female subjects from 18 to 69 years of age at time of consent with sensorimotor complete, traumatic SCI (American Spinal Injury Association Impairment Scale A) or sensorimotor incomplete, traumatic SCI (American Spinal Injury Association Impairment Scale B). […] There was a single spinal cord lesion on a post-stabilization magnetic resonance imaging (MRI) scan, with sufficient visualization of the spinal cord injury epicenter and lesion margins to enable post-injection safety monitoring. Subjects were able to participate in an elective surgical procedure to inject AST-OPC1 21 to 42 days following SCI. Subjects received a single dose of either 2×10^6, 1×10^7, or 2×10^7 AST-OPC1 viable cells by injection, administered 21 to 42 days following SCI. The product was delivered intraoperatively into the spinal cord using the Syringe Positioning Device. The AST-OPC1 batch numbers used in this study were M08D1A, M22D1A and M25D1A. Single administration of AST-OPC1 was provided with 1 year of follow-up. Schematics of the planned study timeline, and subject screening and treatment, are provided in FIG. 6 and FIG. 7, respectively. A schematic diagram of the final open-label, staggered dose-escalation, multicenter Phase 1/2a clinical trial is shown in FIG. 8. An overview of study visits for the one-year protocol is presented in the study schema in FIG. 9.
A neurological examination was completed using the standardized International Standards for Neurological Classification of Spinal Cord Injury (ISNCSCI) examination for motor and sensory testing and for designation of the American Spinal Injury Association impairment scale. The ISNCSCI is used for efficacy with respect to improved motor function in the extremities, improved sensory function, and/or a descending neurological level. Safety assessments included physical examination, vital signs, ISNCSCI neurological examination, pain questionnaire (International Spinal Cord Injury Pain Basic Data Set, ISCIPBDS), electrocardiogram (ECG), Magnetic Resonance Imaging (MRI), laboratory tests, concomitant medications, and adverse events (AEs). Results for the ISNCSCI were listed for each subject by scheduled visit and analyzed by change in motor level and motor scores as well as other exploratory assessments of arm/hand function, self-care ability and overall volitional performance. Adverse events were tabulated by system organ class and by preferred term within system organ class according to the Medical Dictionary for Regulatory Activities (MedDRAR) Version 18.0. S[…] of the safety data was performed using descriptive statistical methods including AEs incidence, severity and relatedness to AST-OPC1, to the injection procedure for product administration, and concomitant immunosuppression with tacrolimus. The number of laboratory assessments (hematology, clinical chemistry) that were below, within, or above the normal laboratory reference range were summarized for each analyte at scheduled study visits. Vital signs were summarized by calculating the mean, standard deviation, median, and range of values at each of the protocol-specified time points.
Study Endpoints. […]

[2] = tested on: T3 to T11 neurologically complete spinal cord injuries (SCI); assay: Phase 1 thoracic SCI trial of LCTOPC1 (NCT01217008): safety, adverse events; assay type: in vivo, human; conditions: 60 days immunosuppression
Procedure: Study design. The trial design was an open-label, multicenter study. A single dose of 2×10^6 LCTOPC1 was injected within 7 to 14 days following SCI. Subjects who received LCTOPC1 also received tacrolimus to prevent rejection. Subjects will be followed by protocol for 15 years following administration of LCTOPC1. This study was a Phase 1, multi-center, non-randomized, a single group assignment interventional clinical trial. The Participants were enrolled from one of seven centers in the United Sates. The study was registered (NCT01217008) and the primary endpoint was safety, as measured by the frequency and severity of adverse events related to LCTOPC1, the injection procedure used to administer LCTOPC1, and/or the concomitant immunosuppression administered. The secondary endpoint was neurological function as measured by sensory scores and lower extremity motor scores on […] examinations. […] The primary endpoint was safety measured by the frequency and severity of adverse events related to the OPC1 injection, the injection procedure, and/or the concomitant immunosuppression administered. The secondary endpoint was neurological function as measured by sensory scores and lower extremity motor scores as measured by the […] examinations. […] The severity of AEs and the characterization of Serious Adverse Events (SAEs) were evaluated using standard FDA criteria. […]

[3] = tested on: dorsal funicular lesion (DFL) SCI model; conditions: cited from earlier work

| Molecule | AEs related to Tacrolimus that were hypomagnesemia ([1]; both, human, in vivo, 60 days) | Decreased Appetite: Severity ([1]; both, human, in vivo, 60 days) | Hypomagnesemia: Days from Injection ([1]; both, human, in vivo, 60 days) | Hypomagnesemia: Severity ([1]; both, human, in vivo, 60 days) | Nausea: Days from Injection ([1]; both, human, in vivo, 60 days) | Nausea: Severity ([1]; both, human, in vivo, 60 days) | Bacterial infection: Days from Injection ([1]; causality Tacrolimus) | Bacterial infection: Outcome ([1]; causality Tacrolimus) | Bacterial infection: Severity ([1]; causality Tacrolimus) | Decreased Appetite: Outcome ([1]; in vivo) | Hypomagnesemia: Outcome ([1]; in vivo) | Nausea: Outcome ([1]; in vivo) | tolerability of immunosuppression ([1]; in vivo) | Grade 1 AEs possibly related specifically to tacrolimus [2] | Grade 2 AEs possibly related specifically to tacrolimus [2] | effect on scarring and wound cavitation ([3]; DFL SCI model, adult rats) | axonal regrowth ([3]; Decorin-treated vs PBS-treated DFL) | inflammation, glial scar formation, CSPG expression ([3]; after acute spinal cord injury) |
| --- | --- | --- | --- | --- | --- | --- | --- | --- | --- | --- | --- | --- | --- | --- | --- | --- | --- | --- |
| C=CC[C@@H]1/C=C(\C)C[C@H](C)C[C@H](OC)[C@H]2O[C@@](O)(C(=O)C(=O)N3CCCC[C@H]3C(=O)O[C@H](/C(C)=C/[C@@H]3CC[C@@H](O)[C@H](OC)C3)[C@H](C)[C@@H](O)CC1=O)[C@H](C)C[C@@H]2OC [Tacrolimus, tacrolimus] | 8/11 | Grade 2 | 5 to 43 days | 1-2 Grade | 7 days | Grade 2 | 30 days | Resolved | Grade 3 | Resolved | Resolved | Resolved | well-tolerated | Seven Grade 1 AEs | nine Grade 2 AEs | – | – | – |
| B1 | – | – | – | – | – | – | – | – | – | – | – | – | – | – | – | suppressed acute scarring (fibrogenesis) and wound cavitation | promoted axonal regrowth in both acute and chronic experiments | inhibit inflammation, glial scar formation and CSPG expression |
